Measurements taken from patent US9629848B2, “Compounds that modulate autoimmunity and methods of using the same” (The Regents of the University of Colorado, a body corporate, priority 2011, dated 2017).
Read-outs that look alike come from different tables or passages of the source. Non-standard residues stand in square brackets, D forms with d. Residues, ends and D or L forms follow the SMILES beside them. ξ: configuration not given here. ξY = NC(Cc1ccc(O)cc1)C(=O)O; Nva = CCC[CH](N)C(=O)O

Assays:
[1] = system: BDC 12-4.1 anti-B:9-23 T cell hybridoma; test: T cell stimulation assay, B:9-23 activated TCR BDC 12-4.1; assay type: cell-based; conditions: Mus musculus, B:9-23 activated TCR, read-out: IC50 for anti-B:9-23 TCRs BDC 12-4.1
[2] = system: BDC 8-1.1α1 anti-B:9-23 T cell hybridoma; test: T cell stimulation assay, B:9-23 activated TCR 8-1.1α1; assay type: cell-based; conditions: Mus musculus, B:9-23 activated TCR, read-out: IC50 for anti-B:9-23 TCRs 8-1.1α1
[3] = system: human T cell receptor recognizing insulin B:9-23 presented by human DQ8; test: Inhibition of human T cell receptor recognizing insulin B:9-23 presented by human DQ8; assay type: cell-based; conditions: for Inhibition of human T cell receptor recognition of insulin B:9-23 presented by human DQ8: screen of DQ8 pocket 1 and pocket 9 compounds; for Concentration at which inhibition is exhibited: DQ8 pocket 1 and pocket 9 compounds studied in detail
Description: Using a TCR sequence obtained from a T cell line generated from the peripheral blood of a diabetic individual with DQ8 molecule, a TCR was identified that is DQ8 restricted and responds to the insulin B:9-23 peptide.
Molecules predicted to occupy pockets 1 and 9 of the human DQ8 peptide binding groove were identified using in silico molecular docking program. The top scoring compounds for each pocket were screened for their ability to inhibit anti-B:9-23 T cell responses. FIGS. 9A and 9B represent the results of the T cell stimulation assay for compounds occupying pocket 1 and pocket 9 of the human DQ8 peptide binding groove, respectively.

DQ8 = DQ8 (Homo sapiens, UniProt P01909+P01920, A209T/A45G/C70Q/D89A/DUP78-78/E183D/E77G/F237L/G63E/H199R/I129T/K197E/L178F/L74F/L98V/Q57E/Q76R/S185I/S97I/T217I/T49S/V73L/Y58L); test: Competitive binding assay B:9-23 to DQ8
[4] = >100 uM means some effect at 100 uM but not 50% inhibition, < means lower concentrations not used

| Compound | IC50 (DQ8) [µM] | Competitive Binding Assay B:9-23 to DQ8 (IC50) (DQ8; [4]) | further results |
| --- | --- | --- | --- |
| Nc1nc(N)c2nn[nH]c2n1 | – | – | IC50 [1]: 24 µM; IC50 [2]: 25.5 µM |
| C1CN2CN1CN1CCN(C1)C2 | – | – | IC50 [1]: 2.8 µM; IC50 [2]: 48.8 µM |
| NC1(N)Sc2nc3ccccc3nc2S1 | – | – | IC50 [1]: 14.8 µM; IC50 [2]: 70.4 µM |
| 5-((2,5-dichloro-4-(hydroxy(oxido)amino)phenyl)diazenyl)-2-imino-4-methyl-2,3-dihydro-1,3-thiazole [p1:21] | – | – | Inhibition of human T cell receptor recognition of insulin B:9-23 presented by human DQ8 [3]: able to inhibit |
| COC(=O)COc1ccc(Cl)cc1C(=O)O [p1:18, 5-chloro-2-(2-methoxy-2-oxoethoxy) benzoic acid] | – | – | Inhibition of human T cell receptor recognition of insulin B:9-23 presented by human DQ8 [3]: able to inhibit |
| COc1ccc2c(n1)Sc1c(N)nc(N)nc1N2 [p1:22, 7-methoxy-10H-pyrido[2,3-b]pyrimido[4,5-e][1,4]thiazine-2,4-diamine] | – | – | Inhibition of human T cell receptor recognition of insulin B:9-23 presented by human DQ8 [3]: able to inhibit |
| Nc1nc(O)c2nc(S)c(C(=O)O)nc2n1 [p1:25, 2-amino-4-hydroxy-6-mercapto-7-pteridine carboxylic acid] | – | – | Inhibition of human T cell receptor recognition of insulin B:9-23 presented by human DQ8 [3]: able to inhibit |
| N=C(N)NC(=N)Nc1ccccc1Cl [p4:1] | > 100 | – | – |
| [H]/N=C(\N/C(N)=N/[H])Nc1ccc([N+](=O)[O-])cc1 [p4:2] | – | No inhibition | – |
| [H]/N=C(\NCC[N+](C)(C)C)NN([O-])O [p4:3] | – | No inhibition | – |
| [H]/N=C(/N/N=C/c1ccncc1)NN(O)O [p4:4] | – | – | Competitive Binding Assay B:9-23 to DQ8 (IC50) (DQ8): No inhibition |
| CC1CNC2C(=O)NC(=O)NC2N1 (stereo not shown) [p4:5] | > 100 | – | – |
| CN(Cc1ccccc1)Cn1ccnc1 [p4:6] | – | No inhibition | – |
| [H]/N=C(\NCCN(C)C)NN(O)O [p4:7] | < 100 | – | – |
| [H]/N=C(\NCCOC(C)=O)NN(O)O [p4:8] | – | No inhibition | – |
| NC(=O)N/N=C/C1CNCCN1 (stereo not shown) [p4:9] | – | No inhibition | – |
| [H]/N=C(/Nc1ccc(Cl)cc1)NN(O)O [p4:12] | > 100 | – | – |
| c1cc[n+](CC[n+]2ccccc2)cc1 [p4:13] | – | No inhibition | – |
| NC(Cn1ccc(=O)c(O)c1)C(=O)O (stereo not shown) [p4:14] | – | No inhibition | – |

| Compound | IC50 (DQ8) [µM] | Competitive Binding Assay B:9-23 to DQ8 (IC50) (DQ8; [4]) | further results |
| --- | --- | --- | --- |
| Clc1ccc(Cl)c(OCC2=NCCN2)c1 [p4:15] | > 100 | – | – |
| [H]/N=C(\NN(O)O)NS(=O)(=O)c1ccccc1 [p4:17] | > 100 | – | – |
| [H]/N=C(\N)NCCC(N)C(=O)O (stereo not shown) [p4:18] | – | No inhibition | – |
| [H]/N=C(\NCCCCl)NN(O)O [p4:19] | > 100 | – | – |
| CCCC(N)C(=O)NC(C(=O)O)C(C)C (stereo not shown) [p4:20] (H-[Nva]-Val-OH; configuration not given here) | > 100 | – | – |
| c1ccc(CCN2CCCCCCCC2)nc1 [p4:21] | – | No inhibition | – |
| Oc1ncnc2[nH]c(C(O)c3ccccc3)nc12 (stereo not shown) [p4:22] | > 100 | – | – |
| NC(=O)N/N=C/Cn1cc([N+](=O)[O-])c(=O)[nH]c1=O [p4:23] | > 100 | – | – |
| [H]/N=C(\NCCC#N)NN(O)O [p4:24] | – | No inhibition | – |
| [H]/N=C(\NCCS(C)(=O)=O)NN(O)O [p4:26] | – | No inhibition | – |
| [H]/N=C(/NCc1ccccc1)NN(O)O [p4:28] | > 100 | – | – |
| CCC(N)C(O)c1ccccc1 (stereo not shown) [p4:30] | – | – | Competitive Binding Assay B:9-23 to DQ8 (IC50) (DQ8): No inhibition |
| [H]/N=C(\NCCOC)NN(O)O [p4:31] | > 100 | – | – |
| CC1C(c2ccccc2)OCN1C (stereo not shown) [p4:32] | < 100 | – | – |
| OC1CN(Cc2ccccc2)CC1O (stereo not shown) [p4:33] | – | No inhibition | – |
| NC(CCCC(N)C(=O)O)C(=O)O (stereo not shown) [p4:34] | > 100 | – | – |
| CCCCN(C)C12CN3CN(CN(C3)C1)C2 [p4:35] | > 100 | – | – |
| C[N+]1(C/C=C/Cl)CN2CNCN(C2)C1 (stereo not shown) [p6:2] | – | No inhibition | – |
| NC1CC2NC3CCCCC3NC2CC1N (stereo not shown) [p6:7] | – | No inhibition | – |

| Compound | IC50 (DQ8) [µM] | Competitive Binding Assay B:9-23 to DQ8 (IC50) (DQ8; [4]) | further results |
| --- | --- | --- | --- |
| C[N+]1(C/C=C/CCl)CN2CNCN(C2)C1 (stereo not shown) [p6:8] | – | No inhibition | – |
| CN1C(=O)C(N)C(N)N(C)C1=O (stereo not shown) [p6:16] | – | No inhibition | – |
| NCc1c(Cl)c(Cl)c(Cl)c(CN)c1Cl [p6:19] | > 100 | – | – |
| COC(=O)C(C=C(Cl)Cl)N1CCNCC1 (stereo not shown) [p6:23] | > 100 | – | – |
| NCC(=O)NC(Cc1ccc(O)cc1)C(=O)O (stereo not shown) [p6:24] (H-Gly-[ξY]-OH) | > 100 | – | – |
| C1CCCNCCNCCNCC1 [p6:27] | – | No inhibition | – |
| CC1(CO)COC(=O)C(C)(C2(C)NC(C)(CO)COC2=O)N1 (stereo not shown) [p6:28] | – | No inhibition | – |
| NC1(COS(=O)(=O)O)CCN1 (stereo not shown) [p6:30] | – | No inhibition | – |
| O=C1CN(C2CCCCC2N2CC(=O)NC(=O)C2)CC(=O)N1 (stereo not shown) [p6:31] | – | No inhibition | – |
| C=CC(OC(=O)CC)(c1ccccc1)C1CCNCC1 (stereo not shown) [p6:32] | – | – | Competitive Binding Assay B:9-23 to DQ8 (IC50) (DQ8): No inhibition |
| N=C(N)c1ccc(/C=C/c2ccc(C(=N)N)cc2)cc1 [p6:33] | – | No inhibition | – |
| CC(=O)N1C(=O)C2(NCCCN2)c2ccccc21 [p6:34] | < 100 | – | – |
| O=P(O)(O)CCCP(=O)(O)O [p9:1, 3-phosphonopropylphosphonic acid] | – | – | Inhibition of human T cell receptor recognition of insulin B:9-23 presented by human DQ8 [3]: able to inhibit |
| O=C(O)COC1C=CC(=O)N(CC(=O)O)N1 (stereo not shown) [p9:5, 3-(carboxymethoxy)-6-oxo-3,6-dihydro-1(2H)-pyridazinyl acetic acid] | – | – | Concentration at which inhibition is exhibited [3]: nanomolar; Inhibition of human T cell receptor recognition of insulin B:9-23 presented by human DQ8 [3]: able to inhibit |
| O=S(=O)(O)C(O)CC(O)S(=O)(=O)O (stereo not shown) [p9:10, 1,3-dihydroxy-1,3-propanedisulfonic acid] | – | – | Inhibition of human T cell receptor recognition of insulin B:9-23 presented by human DQ8 [3]: able to inhibit |
| O=C(O)C(S)CC(S)C(=O)O (stereo not shown) [p9:17, 3-deoxy-2,4-dithiopentaric acid] | – | – | Inhibition of human T cell receptor recognition of insulin B:9-23 presented by human DQ8 [3]: able to inhibit |
| O=S(=O)(O)CCc1nnn[nH]1 [p9:23, 2-(1H-tetraazol-5-yl)ethanesulfonic acid] | – | – | Concentration at which inhibition is exhibited [3]: nanomolar; Inhibition of human T cell receptor recognition of insulin B:9-23 presented by human DQ8 [3]: able to inhibit |
| CC=C1C(C(=O)O)C1C(=O)O (stereo not shown) [p9:35, 3-ethylidene-1,2-cyclopropanedicarboxylic acid] | – | – | Inhibition of human T cell receptor recognition of insulin B:9-23 presented by human DQ8 [3]: able to inhibit |
